The text below walks through data of PubChem BioAssay AID330 (DTP/NCI, 2004).

The subject of this test is P388 leukemia ip, CD2F1 mice, survival T/C. Kind of test: NCI In Vivo Anticancer Drug Screen. Data for tumor model P388 Leukemia (intraperitoneal) in CD2F1 (CDF1) mice. The note with it: endpoint: median survival time, higher = longer survival. The procedure, abridged: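 Mice carrying the transplanted tumor received test compound or vehicle. Survival was recorded in each group, and the value is the treated-group measurement divided by that of the vehicle-treated control group.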

Setting [1] is: dose: 12.5 mg/kg/injection, schedule: Q01DX009 (ip), vehicle: saline with Tween-80.
Where [2] appears, read: dose: 25.0 mg/kg/injection, schedule: Q01DX009 (ip), vehicle: saline with Tween-80.
[3] abbreviates: dose: 50.0 mg/kg/injection, schedule: Q01DX009 (ip), vehicle: saline with Tween-80.
The mark [4] stands for this setting: dose: 100.0 mg/kg/injection, schedule: Q01DX009 (ip), vehicle: saline with Tween-80.
The mark [5] stands for this setting: dose: 200.0 mg/kg/injection, schedule: Q01DX009 (ip), vehicle: saline with Tween-80.
Where [6] appears, read: dose: 50.0 mg/kg/injection, schedule: Q01DX005 (ip), vehicle: saline with Tween-80.

Where “and” joins values, the source holds several entries; their conditions need not be identical. Equal values may be shown once. Toxic doses and inconclusive results are not listed.

On to `COc1ccc2c(c1)C1(C)CCCC(C)(COC(C)=O)C1CC2` (configuration not stated), for which the T/C is 91 % of control (dose: 7.5 mg/kg/injection, schedule: Q01DX009 (ip), vehicle: saline with Tween-80); 91 % of control (dose: 15.0 mg/kg/injection, schedule: Q01DX009 (ip), vehicle: saline with Tween-80); 89 % of control (dose: 30.0 mg/kg/injection, schedule: Q01DX009 (ip), vehicle: saline with Tween-80).

Take `COc1ccc(C2=CC(=O)N(C(C)C)C2=O)cc1`: the T/C runs as follows: under setting [1], 107 % of control; under setting [2], 116 % of control; under setting [3], 107 % of control; under setting [4], 108 % of control; under setting [5], 109 % of control.

In the case of `O=C1CCCCC1C1=CCCCC1` (configuration not stated), the T/C runs as follows: (dose: 50.0 mg/kg/injection, schedule: Q01DX009 (ip), vehicle: Klucel (hydroxypropylcellulose) (HPC)) 109 % of control; (dose: 100.0 mg/kg/injection, schedule: Q01DX009 (ip), vehicle: Klucel (hydroxypropylcellulose) (HPC)) 95 % of control; (dose: 200.0 mg/kg/injection, schedule: Q01DX009 (ip), vehicle: Klucel (hydroxypropylcellulose) (HPC)) 100 % of control; (dose: 400.0 mg/kg/injection, schedule: Q01DX009 (ip), vehicle: Klucel (hydroxypropylcellulose) (HPC)) 92 % of control.

`CCOc1ccc2nc3ccccc3c(N)c2c1`: the T/C is 103 % of control and 112 % of control (dose: 7.5 mg/kg/injection, schedule: Q01DX005 (ip), vehicle: saline with Tween-80); 113 % of control (dose: 15.0 mg/kg/injection, schedule: Q01DX005 (ip), vehicle: saline with Tween-80); 124 % of control (dose: 30.0 mg/kg/injection, schedule: Q01DX005 (ip), vehicle: saline with Tween-80).

With `N#CC(c1ccccc1)c1cnccn1` (configuration not stated), the T/C is 102 % of control (dose: 25.0 mg/kg/injection, schedule: Q01DX005 (ip), vehicle: saline with Tween-80) and 100 % of control under setting [6].

For `CCN(CCO)CC(C)Nc1ccc([N+](=O)[O-])c2sc3ccccc3c(=O)c12` (configuration not stated), the T/C is, setting by setting: under setting [2], 159 % of control; under setting [3], 190 % of control and 213 % of control; (dose: 66.0 mg/kg/injection, schedule: Q04DX003 (ip), vehicle: saline with Tween-80) 159 % of control; under setting [4], 100 % of control; (dose: 100.0 mg/kg/injection, schedule: Q04DX003 (ip), vehicle: saline with Tween-80) 213 % of control; (dose: 150.0 mg/kg/injection, schedule: Q04DX003 (ip), vehicle: saline with Tween-80) 118 % of control.

`CCCCCCCCCCCCCCCC[N+](C)(C)CCSCC(N)=O`: the T/C was 109 % of control (dose: 12.5 mg/kg/injection, schedule: Q04DX003 (ip), vehicle: saline); 111 % of control and 121 % of control (dose: 50.0 mg/kg/injection, schedule: Q04DX003 (ip), vehicle: saline).

In the case of `CN=C(N)N/N=C(\C)c1ccc2c(c1)Cc1cccc(Br)c1-2`, the T/C is 111 % of control (dose: 25.0 mg/kg/injection, schedule: Q04DX002 (ip), vehicle: saline with Tween-80); 109 % of control (dose: 50.0 mg/kg/injection, schedule: Q04DX002 (ip), vehicle: saline with Tween-80); 109 % of control (dose: 100.0 mg/kg/injection, schedule: Q04DX002 (ip), vehicle: saline with Tween-80).

Turning to `Cc1ccc(NCCCC2CCCN3CCCCC23)c2c(=O)c3ccccc3sc12` (configuration not stated), the T/C by setting is: (dose: 12.5 mg/kg/injection, schedule: Q01DX005 (ip), vehicle: distilled water + Tween-80) 100 % of control; (dose: 25.0 mg/kg/injection, schedule: Q01DX005 (ip), vehicle: distilled water + Tween-80) 91 % of control; (dose: 50.0 mg/kg/injection, schedule: Q01DX005 (ip), vehicle: distilled water + Tween-80) 90 % of control.

For `N#Cc1cccc[n+]1Cc1ccc([N+](=O)[O-])cc1`, the T/C by setting is: under setting [1], 95 % of control; under setting [2], 109 % of control; under setting [3], 118 % of control.

With `COC(=O)c1cc2c(cc1/C=C/C=O)OCO2`, the T/C reads like this: (dose: 60.0 mg/kg/injection, schedule: Q01DX005 (ip), vehicle: saline with Tween-80) 100 % of control; (dose: 120.0 mg/kg/injection, schedule: Q01DX005 (ip), vehicle: saline with Tween-80) 109 % of control; (dose: 240.0 mg/kg/injection, schedule: Q01DX005 (ip), vehicle: saline with Tween-80) 109 % of control.

On to `Cc1cn(C2CC(O)C(CO)O2)c(=O)[nH]c1=O` (configuration not stated), for which the T/C (dose: 16.0 mg/kg/injection, schedule: Q01DX009 (ip), vehicle: saline) is 100 % of control and 105 % of control; the T/C (dose: 32.0 mg/kg/injection, schedule: Q01DX009 (ip), vehicle: saline with Tween-80) was 109 % of control; the T/C (dose: 64.0 mg/kg/injection, schedule: Q01DX009 (ip), vehicle: saline with Tween-80) is 101 % of control; the T/C (dose: 128.0 mg/kg/injection, schedule: Q01DX009 (ip), vehicle: saline with Tween-80) was 101 % of control; the T/C (dose: 150.0 mg/kg/injection, schedule: Q02HX012 (ip), vehicle: saline) is 96 % of control; the T/C (dose: 150.0 mg/kg/injection, schedule: Q04DX012 (ip), vehicle: saline) is 104 % of control. For the same compound, the T/C (dose: 200.0 mg/kg/injection, schedule: Q02HX012 (ip), vehicle: saline) was 98 % of control; the T/C (dose: 200.0 mg/kg/injection, schedule: Q04DX012 (ip), vehicle: saline) is 102 % of control; the T/C (dose: 250.0 mg/kg/injection, schedule: Q01DX001 (ip), vehicle: saline) is 98 % of control; the T/C (dose: 250.0 mg/kg/injection, schedule: Q01DX009 (ip), vehicle: saline) is 100 % of control; the T/C (dose: 256.0 mg/kg/injection, schedule: Q01DX009 (ip), vehicle: saline with Tween-80) is 89 % of control; the T/C (dose: 300.0 mg/kg/injection, schedule: Q02HX012 (ip), vehicle: saline) was 101 % of control. For the same compound, the T/C (dose: 300.0 mg/kg/injection, schedule: Q04DX012 (ip), vehicle: saline) was 100 % of control; the T/C (dose: 375.0 mg/kg/injection, schedule: Q01DX009 (ip), vehicle: saline) is 107 % of control and 95 % of control; the T/C (dose: 400.0 mg/kg/injection, schedule: Q02HX012 (ip), vehicle: saline) is 109 % of control; the T/C (dose: 400.0 mg/kg/injection, schedule: Q04DX012 (ip), vehicle: saline) is 105 % of control; the T/C (dose: 500.0 mg/kg/injection, schedule: Q01DX001 (ip), vehicle: saline) is 98 % of control; the T/C (dose: 512.0 mg/kg/injection, schedule: Q01DX009 (ip), vehicle: saline with Tween-80) is 108 % of control. Besides, the T/C reads like this: (dose: 512.0 mg/kg/injection, schedule: Q01DX009 (ip), vehicle: saline) 99 % of control and 102 % of control; (dose: 600.0 mg/kg/injection, schedule: Q02HX012 (ip), vehicle: saline) 108 % of control; (dose: 600.0 mg/kg/injection, schedule: Q04DX012 (ip), vehicle: saline) 102 % of control; (dose: 750.0 mg/kg/injection, schedule: Q01DX009 (ip), vehicle: saline) 115 % of control and 97 % of control; (dose: 1000.0 mg/kg/injection, schedule: Q01DX009 (ip), vehicle: saline) 101 % of control and 103 % of control and 110 % of control; (dose: 1500.0 mg/kg/injection, schedule: Q01DX009 (ip), vehicle: saline) 108 % of control.

For `C#CC(CC)(CC)N=Cc1cc(Cl)cc(Cl)c1O`, the T/C is, setting by setting: under setting [3], 98 % of control; under setting [4], 94 % of control; under setting [5], 96 % of control.

Turning to `O=c1c2c([nH]c3ccccc13)CSC2`, the T/C under setting [3] was 100 % of control; the T/C under setting [4] is 100 % of control; the T/C under setting [5] is 97 % of control; the T/C (dose: 400.0 mg/kg/injection, schedule: Q01DX009 (ip), vehicle: saline with Tween-80) is 100 % of control.

Regarding `COC1NC(=O)Oc2ccccc21` (configuration not stated), the T/C runs as follows: under setting [6], 109 % of control and 97 % of control; (dose: 100.0 mg/kg/injection, schedule: Q01DX005 (ip), vehicle: saline with Tween-80) 108 % of control and 109 % of control; (dose: 200.0 mg/kg/injection, schedule: Q01DX005 (ip), vehicle: saline with Tween-80) 114 % of control.

For the compound `CCCOC(=O)CP(=O)(O)O`, the T/C under setting [3] is 101 % of control, the T/C under setting [4] was 95 % of control and the T/C under setting [5] was 87 % of control.

In the case of `S=C(N/N=C\c1c[nH]c2ccc(Br)cc12)NC12CC3CC(CC(C3)C1)C2`, the T/C (dose: 60.0 mg/kg/injection, schedule: Q01DX005 (ip), vehicle: Klucel (hydroxypropylcellulose) (HPC)) is 98 % of control; the T/C (dose: 120.0 mg/kg/injection, schedule: Q01DX005 (ip), vehicle: Klucel (hydroxypropylcellulose) (HPC)) was 93 % of control; the T/C (dose: 240.0 mg/kg/injection, schedule: Q01DX005 (ip), vehicle: Klucel (hydroxypropylcellulose) (HPC)) was 98 % of control.
